Measurements: article PMC4389225, “Triaminopyrimidine is a fast-killing and long-acting antimalarial clinical candidate” (Nature Communications, 2015)
“And” between values parts separate entries of the source, which are not always exact repeats. Equal entries are not always repeated. Where two headings read alike, the source gives them in different places.

Legend:
Dd2 bc-1 ELQ-300 = test: [3H]-hypoxanthine incorporation assay, Dd2 bc-1 ELQ-300 resistant; type: cell-based, Plasmodium falciparum; conditions: Plasmodium falciparum, DD2
Experimental: (§1) Supplementary Table 3: Compound 9 and 12 retain their activity against Pf strains harbouring mutations to novel antimalarial agents in clinical development. Compound 9 and 12 were tested for their antiplasmodial activity against a panel of Pf strains known to harbour mutations conferring resistance to novel agents under clinical development. Parasite growth inhibition is measured using the [3H]-hypoxanthine incorporation assay. IC50s are established for each strain (n ≥2) and compared to the IC50 of Dd2 (standard pan-resistant […]

Dd2-6R F4 G7 = test: SYBR green growth assay, Dd2-6R F4 G7; conditions: Plasmodium falciparum
Experimental: Assays were carried out in 384-well format with three technical replicates within an assay day and biological replicates carried out on three different assay days to assign a final EC50.
The drug was then washed off and the parasites were allowed to recover in normal growth media.

[1] = design: species or system human
Description: Supplementary Note 5: Prediction of human clearance for compound 12 by IVIVE.
Human clearance (CL) was predicted by in vitro-in vivo extrapolation (IVIVE) from the in vitro Clint in human hepatocytes6. In vitro Clint was scaled to in vivo Clint as follows:
Clint in vivo = Clint in vitro * scaling factors * fublood/fuinc
The liver weights used for scaling were 40, 32 and 24 g/kg body weight in rat, dog and human respectively. Hepatocellularity used for scaling was 163, 169 and 120 (X 106) cells/g liver in rat, dog and human respectively. Free fraction in blood was calculated as fuplasma /Blood:Plasma (BP) ratio. BP ratio and free fraction in the hepatocyte incubation mix, fuinc, were measured in vitro. Slope and intercept from the linear regression analysis of IVIVC for a large number of AstraZeneca compounds was applied for final correction in the scaled in vivo Clint. A well stirred model was used for CL prediction.
Where Qh is the liver blood flow. The values of Qh in rat, dog and human are 72, 55 and 20 mL.min-1kg-1 in rat, dog and human, respectively. In vitro parameters, observed in vivo CL and predicted CL are shown in supplementary Table 10.
Prediction of human CL and Vss by rat and dog allometry. Human CL for 12 was also predicted by simple, two species (rat and dog) allometry based on CL and Vss estimates from rat and dog IVPK. The coefficient and exponent from allometry were used for human CL prediction by the Fu corrected intercept method (FCIM)7. CL was predicted as […]
(also on this page, place not known: in vivo in vivo CLintQ CLintQCL Predicted predicted predicted h h + ×=)
(1 picture or pasted object on this page, not shown here)
Where ‘a’ is the coefficient obtained from simple allometric scaling and Rfup is the ratio of free fractions in plasma, fup in rat to fup in human. Vss in human was predicted by simple, rat and dog allometry (supplementary Table 11).
Prediction of human PK profile. The predicted human CL and Vss estimates could be used for predicting human PK with a one compartment distribution. However, rat and dog IVPK profiles indicated a two compartment distribution. Parameters for the two compartment distribution in human were predicted by Wajima transformation8 of rat and dog IVPK […]
CLd, Vt and Vc estimates, assuming similar Ka (0.3/h) and F (0.7) as observed in rats (supplementary Fig. 12 ).
Predicted human PK parameters are shown in supplementary Table 12. Human CL estimates predicted by the FCIM method and IVIVE (3.8 ml/min/kg) were identical. The […]
Human efficacy was predicted after treatment of 70 kg adult with a single 260 mg dose, assuming 2% parasitemia at the onset of treatment and assuming one compartment distribution of 12 in humans (supplementary Fig. 13). Similar efficacy was predicted if 12 was distributed in two compartments.

Pf 3D7A = test: in vitro parasite reduction ratio (PRR) assay; conditions: after 48 h of exposure, 10 times IC50
PfATP4 Cpd 2 = test: [3H]-hypoxanthine incorporation assay, PfATP4 Cpd 2 resistant; type: cell-based; conditions: Plasmodium falciparum
Experimental: as §1

PfATP4 Cpd 3 = test: [3H]-hypoxanthine incorporation assay, PfATP4 Cpd 3 resistant; type: cell-based; conditions: Plasmodium falciparum
Experimental: as §1

[2] = 260 mg / 70 kg, two compartment

Cc1nc(Nc2ncc(N3CCN(C)[C@H](C)C3)c(Nc3cc(C)n(C)n3)n2)cc(C2CC2)c1F [compound 12, (R)-N2-(4-cyclopropyl-5-fluoro-6-methylpyridin-2-yl)-N4-(1,5-dimethyl-1H-pyrazol-3-yl)-5-(3,4-dimethylpiperazin-1-yl)pyrimidine-2,4-diamine]
IC50 (Dd2 bc-1 ELQ-300): 8.2 nM | IC50 (Dd2-6R F4 G7): 90.7 nM | Predicted human CL [1, 2]: 4.33 mL/min/kg | Predicted human CLd [1, 2]: 20 mL/min/kg | Predicted human Vc [1, 2]: 4.0 L/kg | Predicted human Vt [1, 2]: 7.3 L/kg | Human CL predicted by the FCIM method and IVIVE ([1]; Human): 3.8 mL/min/kg | Predicted blood CL ([1]; Human): 24 % LBF | Predicted blood CL ([1]; Human, IVIVE from hepatocyte Clint): 3.8 mL/min/kg | Predicted human F ([1]; assumed similar to rats): 0.7 | Predicted human Ka ([1]; assumed similar to rats): 0.3 h⁻¹ | B—predicted mean human plasma Cmax free ([1]; human, 260 mg dose): 8.7 nM | predicted half-life in human ([1]; human, predicted): ~ 36 h and 36 h | Allometry parameter B (exponent), CL ([1]; rat and dog allometry): 1.08 | Allometry parameter a (coefficient), CL ([1]; rat and dog allometry): 0.6 | log kill in PRR assay (Pf 3D7A): > 4 log | IC50 (PfATP4 Cpd 2): 8.1 nM | IC50 (PfATP4 Cpd 3): 10 nM
